Columns and labels:
Type in all cases: in vivo
[1] = system: tomato; test: Example 7 drying stress test (tomato), soil culture; conditions: 23° C., 100 ppm, 2 weeks; for Fresh weight, relative value (untreated plot = 100), Comparison 1: stress-free: tomato soil culture, EC 1, pF 1.7, two-leaf stage; for Fresh weight, relative value (untreated plot = 100), Test 1 / Fresh weight, relative value (untreated plot = 100), Test 4 / Fresh weight, relative value (untreated plot = 100), Test 2 / Fresh weight, relative value (untreated plot = 100), Test 3: tomato soil culture; for Fresh weight, relative value (untreated plot = 100), Test 1: EC 1, pF 2.8, two-leaf stage; for Fresh weight, relative value (untreated plot = 100), Test 4: EC 1, pF 3.5, five-leaf stage; for Fresh weight, relative value (untreated plot = 100), Test 2: EC 1, pF 3.5, two-leaf stage; for Fresh weight, relative value (untreated plot = 100), Test 3: EC 1, pF 4.1, two-leaf stage
Experimental: (§1) The environmental conditions in a climatic chamber were controlled so as to have a temperature of 23° C., an illuminance by a fluorescent light of 5000 Lux, and a daily light-dark cycle of a 16-hour light period and an 8-hour dark period. Tomatoes as prepared above were transplanted in size-3 (9 cm) pots. During the test period, the pF value was controlled by adding a suitable amount of tap water once a day so as to attain a specific drying stress value. A treatment solution containing a compound of Table 1 in a specific concentration (the remainder was water) was prepared and sprayed onto the leaves or applied to the underground portions. […] A comparative example was constructed to reflect the drying stress-free optimum cultivation conditions to investigate the plant energizing ability. […] Moreover, when the products of the present invention and the comparative products were compared, the stress tolerance imparting ability of the products of the present invention was higher in respective drying stress conditions.

[2] = system: tomato; test: Example 8 temperature stress test (tomato), soil culture; conditions: 100 ppm, 2 weeks; for Fresh weight, relative value (untreated plot = 100), Comparison 1: stress-free: tomato soil culture, cultivation temperature 23, EC 1, pF 1.7, two-leaf stage; for Fresh weight, relative value (untreated plot = 100), Test 1 / Fresh weight, relative value (untreated plot = 100), Test 2 / Fresh weight, relative value (untreated plot = 100), Test 3 / Fresh weight, relative value (untreated plot = 100), Test 4: tomato soil culture; for Fresh weight, relative value (untreated plot = 100), Test 1: cultivation temperature 10, EC 1, pF 1.7, two-leaf stage; for Fresh weight, relative value (untreated plot = 100), Test 2: cultivation temperature 16, EC 1, pF 1.7, two-leaf stage; for Fresh weight, relative value (untreated plot = 100), Test 3: cultivation temperature 29, EC 1, pF 1.7, two-leaf stage; for Fresh weight, relative value (untreated plot = 100), Test 4: cultivation temperature 35, EC 1, pF 1.7, two-leaf stage
Experimental: as §1, with “Other Conditions were as in Example 5. The” for “The”, “have” for “have a temperature of 23° C.,”, “Lux,” for “Lux, and”, “period, and various temperatures.” for “period.”, “pots.” for “pots. During the test period, the pF value was controlled by adding a suitable amount of tap water once a day so as to attain a specific drying stress value.”, “temperature” for “drying”

[3] = system: “Momotaro” tomato; test: Example 3 drying stress tolerance imparting test (tomato); conditions: 3 weeks
Experimental: Other cultivation conditions were as with the conditions of the drying stress test. Drying stress conditions: soil pF value: 2.3, 2.5, or 2.9, cultivation temperature: 23° C., relative humidity: 50%, illuminance: 5000 Lux (fluorescent light), light/dark cycle: 16 hours/8 hours (2) Cultivation period: 3 weeks (3) Soil: Kureha gardening soil manufactured by Kureha Corporation (fertilizer components: N:P:K=0.4:1.9:0.6 g/kg soil) (4) Plant preparation: A 50-cell tray was filled with Kureha gardening soil manufactured by Kureha Corporation (fertilizer components: N:P:K=0.4:1.9:0.6 g/kg soil), and seeds of a “Momotaro” tomato were sowed, thinly covered with Kureha gardening soil, and sufficiently watered to allow the seeds to sprout. When the leaves in the 2-leaf stage fully unfolded, the soil on the tomato roots was carefully washed away with running water, and a test was performed. (5) The chemicals used and the amount of a treatment solution applied were as in Example 1. (6) Amount of treatment solution applied: 10 ml/specimen for leaf spraying, 50 ml/specimen for fertigation Method of Drying Stress Tolerance Imparting Test Five tomato specimens as prepared above were planted in a 60-cm planter placed on a plant culture rack in an air-conditioned room. […] From immediately after planting the tomatoes, a treatment solution of Table 1 was sprayed onto the leaves or applied to the underground portions once a week. […] Five specimens (per planter) were prepared for each of the test plot and the control plots, plant bodies were collected 3 weeks after the beginning of the test such that the roots were not cut, the soil was washed away with running water, the fresh plant body-weights were measured, and a plant stress level and an extent of imparting plant stress tolerance were calculated according to Formula (ii) and (iii) above using the average of the weights.

[4] = system: “Momotaro” tomato; test: Example 1 salt stress tolerance imparting test (tomato, hydroponic, Otsuka 1/2A + NaCl); conditions: NaCl 3510 ppm, leaf, 2 weeks
Experimental: (1) Salt stress-free test conditions: NaCl concentration (water potential by Nan): 0 ppm (0 MPa). Other cultivation conditions were as the same as the conditions of the drying stress test.
When the leaves in the 2-leaf stage fully unfolded, the soil on the tomato roots was carefully washed away with running water, and a test was performed.
Method of Salt Stress Tolerance Imparting Test
The environmental conditions in a climatic chamber were controlled so as to have a temperature of 23° C., an illuminance by a fluorescent light of 5000 Lux, and a daily light-dark cycle of a 16-hour light period and an 8-hour dark period. […] A treatment solution containing a compound of Table 1 in a specific concentration (the remainder was water) was prepared and sprayed onto the leaves or applied to the underground portion. In addition, a control plot to which no NaCl was added, not imposing a salt stress (this is a control plot for plant body weight 2 for Formula (ii) and is a stress-free control plot) and a control plot to which NaCl was added in various concentrations, imposing a salt stress, and to which the treatment solution was not applied (this is a control plot for plant body weight 1 for Formula (ii) and is a control plot including a salt stress) were prepared as controls. Ten specimens were prepared for each of the test plot and the control plots, and a plant stress level and an extent of imparting plant stress tolerance were calculated according to Formulas (II) above using as a fresh plant body weight the average of the fresh plant body weights of each specimen 2 weeks after the beginning of the test.

[5] = pF 2.3, leaf, 100 ppm once a week

OC[C@H]1O[C@H](OC[C@H]2O[C@H](O[C@]3(CO)O[C@H](CO)[C@@H](O)[C@@H]3O)[C@H](O)[C@@H](O)[C@@H]2O)[C@H](O)[C@@H](O)[C@H]1O [Comparative product 4, Raffinose, reference compound]
Fresh weight, relative value (untreated plot = 100), Comparison 1 ([1]; leaf): 102 | Fresh weight, relative value (untreated plot = 100), Test 1 ([1]; leaf): 103 | Fresh weight, relative value (untreated plot = 100), Test 4 ([1]; leaf): 101 | Fresh weight, relative value (untreated plot = 100), Test 2 ([1]; leaf): 103 | Fresh weight, relative value (untreated plot = 100), Test 3 ([1]; leaf): 103 | Fresh weight, relative value (untreated plot = 100), Comparison 1 ([2]; leaf): 102 | Fresh weight, relative value (untreated plot = 100), Test 1 ([2]; leaf): 100 | Fresh weight, relative value (untreated plot = 100), Test 2 ([2]; leaf): 100 | Fresh weight, relative value (untreated plot = 100), Test 3 ([2]; leaf): 101 | Fresh weight, relative value (untreated plot = 100), Test 4 ([2]; leaf): 101 | Extent of imparting plant stress tolerance [3, 5]: 102%

Sorbitan monooleic acid ester [Product of present invention 11]
Extent of imparting plant stress tolerance [3, 5]: 112% | Extent of imparting plant stress tolerance ([4]; 100 ppm): 112%

POE (6) sorbitan monooleic acid ester [Product of present invention 10]
Extent of imparting plant stress tolerance [3, 5]: 112% | Extent of imparting plant stress tolerance ([4]; 100 ppm): 113%

Alkyl (C12-14) polyglycoside [Product of present invention 16]
Extent of imparting plant stress tolerance [3, 5]: 118% | Extent of imparting plant stress tolerance ([4]; 100 ppm): 115%

Sucrose fatty acid ester (C18, HLB = 9) [Product of present invention 18]
Extent of imparting plant stress tolerance [3, 5]: 113% | Extent of imparting plant stress tolerance ([4]; 100 ppm): 112%

POE (20) sorbitan monostearic acid ester [Product of present invention 14]
Extent of imparting plant stress tolerance [3, 5]: 115% | Extent of imparting plant stress tolerance ([4]; 100 ppm): 116%

Sucrose fatty acid ester (C18:1, HLB = 15) [Product of present invention 22]
Extent of imparting plant stress tolerance [3, 5]: 117% | Extent of imparting plant stress tolerance ([3]; pF 2.3, leaf, 200 ppm once a week): 113% | Extent of imparting plant stress tolerance ([4]; 200 ppm): 112%

POE (20) sorbitan monopalmitic acid ester [Product of present invention 13]
Extent of imparting plant stress tolerance [3, 5]: 116% | Extent of imparting plant stress tolerance ([4]; 100 ppm): 117%

O=C(O)[C@@H]1CCCN1 [Comparative product 2, Proline, reference compound]
Fresh weight, relative value (untreated plot = 100), Comparison 1 ([1]; leaf): 101 | Fresh weight, relative value (untreated plot = 100), Comparison 1 ([1]; underground portion): 102 | Fresh weight, relative value (untreated plot = 100), Test 1 ([1]; leaf): 102 | Fresh weight, relative value (untreated plot = 100), Test 1 ([1]; underground portion): 102 | Fresh weight, relative value (untreated plot = 100), Test 4 ([1]; leaf): 101 | Fresh weight, relative value (untreated plot = 100), Test 4 ([1]; underground portion): 100 | Fresh weight, relative value (untreated plot = 100), Test 2 ([1]; leaf): 102 | Fresh weight, relative value (untreated plot = 100), Test 2 ([1]; underground portion): 103 | Fresh weight, relative value (untreated plot = 100), Test 3 ([1]; leaf): 101 | Fresh weight, relative value (untreated plot = 100), Test 3 ([1]; underground portion): 101 | Fresh weight, relative value (untreated plot = 100), Comparison 1 ([2]; leaf): 101 | Fresh weight, relative value (untreated plot = 100), Comparison 1 ([2]; underground portion): 102 | Fresh weight, relative value (untreated plot = 100), Test 1 ([2]; leaf): 100 | Fresh weight, relative value (untreated plot = 100), Test 1 ([2]; underground portion): 100 | Fresh weight, relative value (untreated plot = 100), Test 2 ([2]; leaf): 100 | Fresh weight, relative value (untreated plot = 100), Test 2 ([2]; underground portion): 100 | Fresh weight, relative value (untreated plot = 100), Test 3 ([2]; leaf): 101 | Fresh weight, relative value (untreated plot = 100), Test 3 ([2]; underground portion): 101 | Fresh weight, relative value (untreated plot = 100), Test 4 ([2]; leaf): 101 | Fresh weight, relative value (untreated plot = 100), Test 4 ([2]; underground portion): 100 | Extent of imparting plant stress tolerance [3, 5]: 103% | Extent of imparting plant stress tolerance ([3]; pF 2.5, leaf, 100 ppm once a week): 102% | Extent of imparting plant stress tolerance ([3]; pF 2.9, leaf, 100 ppm once a week): 103%

Sucrose fatty acid ester (C18, HLB = 11) [Product of present invention 19]
Extent of imparting plant stress tolerance [3, 5]: 115% | Extent of imparting plant stress tolerance ([4]; 100 ppm): 113%

Sucrose fatty acid ester (C16, HLB = 15) [Product of present invention 21]
Extent of imparting plant stress tolerance [3, 5]: 117% | Extent of imparting plant stress tolerance ([4]; 100 ppm): 114%

— patent US20110100079A1, “METHOD FOR IMPARTING STRESS TOLERANCE TO PLANT” (priority 2007, published 2011)
